According to PMC9916356, “Design, Synthesis and Pharmacological Evaluation of New Quinoline-Based Panx-1 Channel Blockers” (International Journal of Molecular Sciences, 2023):
Read-outs that look alike come from different tables or passages of the source.

Legend:
in vitro = assay: in vitro; parameters: stability in human plasma at 37 °C, HPLC-MS/MS, half-life from first-order degradation plot; conditions: plasma; human plasma; read-out: H-pl
Protocol: (§1) In these assays, the variation of analytes concentration at four different incubation times both in PBS and in human plasma samples was monitored to evaluate their susceptibility toward spontaneous or enzymatic hydrolysis, respectively. By plotting any variation of analyte concentration vs. the incubation time, the corresponding degradation profiles in tested matrices were obtained. The analyte concentration (1 µM) used during the stability tests is generally smaller than its Michaelis–Menten constant (KM), and the enzymatic degradation rate is described by a first-order kinetic. Therefore, by plotting the natural logarithm of the quantitative data versus the incubation time, a linear function can be used, and its slope represents the degradation rate (k). Accordingly, with the linear function, the half-life (t1/2) of each tested compound can be calculated as follows: t1/2=[…] The plots of the natural logarithm of the quantitative data versus the incubation time of all the studied compounds were analyzed. […] Parameters beyond this value will be indicated as >120 min. […] The degradation plots in PBS and human plasma of our ester compounds are reported in Supporting Information (Figures S1–S6 and Table S1).

physchem = assay: physchem; parameters: chemical stability in PBS at 37 °C, HPLC-MS/MS, half-life from first-order degradation plot; conditions: PBS
Protocol: as §1

Panx-1 [1] = molecular target: T1, Panx-1 (Mus musculus, UniProt Q9JIP4); assay: two-electrode voltage clamp, Xenopus laevis oocytes, single dose […]; assay type: cell-based
T1 construct: gene Panx1
T1 sequence (Q9JIP4 whole entry): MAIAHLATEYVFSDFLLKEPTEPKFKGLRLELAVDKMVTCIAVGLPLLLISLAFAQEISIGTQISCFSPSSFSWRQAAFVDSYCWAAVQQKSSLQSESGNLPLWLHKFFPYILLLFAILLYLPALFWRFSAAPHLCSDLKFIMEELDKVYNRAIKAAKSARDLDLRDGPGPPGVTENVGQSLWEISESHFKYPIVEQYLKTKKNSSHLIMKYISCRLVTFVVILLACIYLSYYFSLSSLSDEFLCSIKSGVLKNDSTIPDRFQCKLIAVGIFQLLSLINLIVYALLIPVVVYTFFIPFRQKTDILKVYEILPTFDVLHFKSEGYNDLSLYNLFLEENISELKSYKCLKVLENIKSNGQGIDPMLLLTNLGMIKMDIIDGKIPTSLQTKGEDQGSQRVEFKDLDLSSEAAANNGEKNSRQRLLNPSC

Panx-1 [2] = molecular target: T1, Panx-1; assay: two-electrode voltage clamp, Xenopus laevis oocytes expressing mouse pannexin1; assay type: cell-based
Panx-1 [3] = molecular target: T1, Panx-1; assay: two-electrode voltage clamp in oocytes, […] CBX applied in each experiment; assay type: cell-based; conditions: read-out: % inhibition at 100 μM

| Compound | half-life at 1 µM (in vitro) [h] | half-life at 1 µM (physchem) [h] | IC50 (Panx-1 [2]) [µM] | other results |
| --- | --- | --- | --- | --- |
| CCOC(=O)c1cn(CCc2ccccc2)c2ccc([N+](=O)[O-])cc2c1=O [4b, Ethyl 6-nitro-4-oxo-1-phenethyl-1,4-dihydroquinoline-3-carboxylate] | > 2 | > 2 | – | – |
| CCOC(=O)c1cn(CCCCc2ccccc2)c2ccc([N+](=O)[O-])cc2c1=O [4d, Ethyl 6-nitro-4-oxo-1-(4-phenylbutyl)-1,4-dihydroquinoline-3-carboxylate] | > 2 | > 2 | – | – |
| CCOC(=O)c1cn(CCCCCc2ccccc2)c2ccc([N+](=O)[O-])cc2c1=O [4e, Ethyl 6-nitro-4-oxo-1-(5-phenylpentyl)-1,4-dihydroquinoline-3-carboxylate] | > 2 | > 2 | – | – |
| CCOC(=O)c1cn(Cc2ccc(S(N)(=O)=O)cc2)c2ccc([N+](=O)[O-])cc2c1=O [4f, Ethyl 6-nitro-4-oxo-1-(4-sulfamoylbenzyl)-1,4-dihydroquinoline-3-carboxylate] | > 2 | > 2 | – | – |
| O=C(O)c1cn(Cc2ccccc2)c2ccc([N+](=O)[O-])cc2c1=O [6a, 1-Benzyl-6-nitro-4-oxo-1,4-dihydroquinoline-3-carboxylic acid] | – | – | – | inhibition at 50 µM (Panx-1 [1]; read-out: TABLE 1): 53 ± 2.9% |
| NS(=O)(=O)c1ccc(Cn2cc(C(=O)O)c(=O)c3cc([N+](=O)[O-])ccc32)cc1 [6f, 6-Nitro-4-oxo-1-(4-sulfamoylbenzyl)-1,4-dihydroquinoline-3-carboxylic acid] | – | – | 3 | – |
| O=C(O)c1ccc(Cn2cc(C(=O)O)c(=O)c3cc([N+](=O)[O-])ccc32)cc1 [6g, 1-(4-Carboxybenzyl)-6-nitro-4-oxo-1,4-dihydroquinoline-3-carboxylic acid] | – | – | 1.5 | – |
| CCCNS(=O)(=O)c1ccc(Nc2c(C(=O)O)cnc3ccccc23)cc1 [13d, 4-[4-(N-Propylsulfamoyl)phenyl]aminoquinoline-3-carboxylic acid] | – | – | – | inhibition at 50 µM (Panx-1 [1]; read-out: TABLE 2): 66 ± 4% |
| CCCN(CCC)S(=O)(=O)c1ccc(Nc2c(C(=O)O)cnc3ccccc23)cc1 [13e, 4-[4-(N,N-Dipropylsulfamoyl)phenyl]aminoquinoline-3-carboxylic acid] | – | – | 4.2 | – |
| O=C(O)c1ccc(Nc2c(C(=O)O)cnc3ccccc23)cc1 [13g, 4-[(4-Carboxyphenyl)amino]quinoline-3-carboxylic acid] | – | – | 15.5 | – |
| CC1(C)[C@@H](OC(=O)CCC(=O)O)CC[C@]2(C)[C@H]3C(=O)C=C4[C@@H]5C[C@@](C)(C(=O)O)CC[C@]5(C)CC[C@@]4(C)[C@]3(C)CC[C@@H]12 [CBX, carbenoxolone] | – | – | – | inhibition at 100 µM (Panx-1 [3]): 100% |
| Nc1ccc2c(c1)c(=O)c(C(=O)O)cn2Cc1ccccc1 [compound 8, 6-Amino-1-benzyl-4-oxo-1,4-dihydroquinoline-3-carboxylic acid] | – | – | – | inhibition at 50 µM (Panx-1 [1]; read-out: TABLE 1): 57 ± 5.9% |
